Source: US20050124575A1, “Remedies” (Takara Bio Inc., priority 2002, published 2005)

Tested on: mouse
Assay: Acute toxicity after oral or intraperitoneal administration
Format: in vivo
Conditions: orally or intraperitoneally administered to a mouse at 1 g/kg

Which acute toxicity does the source give for agarose here?
The acute toxicity was “No acute toxicity”.
